# Legend:
# [1] = Toxicologic studies in female and male dogs, weekly oral dosing; assay type: in vivo, dog
# Source text: Generally, the inter-animal variability in Cmax levels was small.
# [2] = target: T1, human placental microsomal aromatase (Homo sapiens, UniProt P11511); conditions: microsomal fraction of human placenta; Batzl-Hartmann et al, 1994; cited from earlier work
# T1 construct: from tissue; host or cells: human placenta, microsomal fraction
# T1 sequence (P11511 1-503): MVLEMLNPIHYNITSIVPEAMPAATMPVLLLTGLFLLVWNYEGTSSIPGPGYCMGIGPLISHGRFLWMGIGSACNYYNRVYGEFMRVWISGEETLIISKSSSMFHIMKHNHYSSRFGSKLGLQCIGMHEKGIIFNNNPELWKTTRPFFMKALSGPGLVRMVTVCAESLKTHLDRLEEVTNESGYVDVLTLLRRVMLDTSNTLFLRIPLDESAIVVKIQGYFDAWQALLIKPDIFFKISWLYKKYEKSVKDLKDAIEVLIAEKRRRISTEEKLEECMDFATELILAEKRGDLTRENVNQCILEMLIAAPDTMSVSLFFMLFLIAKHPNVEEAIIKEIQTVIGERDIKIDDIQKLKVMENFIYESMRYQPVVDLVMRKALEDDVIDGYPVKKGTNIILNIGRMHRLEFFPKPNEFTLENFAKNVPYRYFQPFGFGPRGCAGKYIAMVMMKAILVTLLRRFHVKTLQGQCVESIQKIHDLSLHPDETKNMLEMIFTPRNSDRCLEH
# aromatase = target: T2, aromatase (Rattus norvegicus, UniProt P22443); conditions: once weekly administration, adult female rats; Batzl-Hartmann et al, 1994; cited from earlier work
# T2 construct: host or cells: adult female rats (whole animal, endogenous enzyme)
# T2 sequence (P22443 1-508): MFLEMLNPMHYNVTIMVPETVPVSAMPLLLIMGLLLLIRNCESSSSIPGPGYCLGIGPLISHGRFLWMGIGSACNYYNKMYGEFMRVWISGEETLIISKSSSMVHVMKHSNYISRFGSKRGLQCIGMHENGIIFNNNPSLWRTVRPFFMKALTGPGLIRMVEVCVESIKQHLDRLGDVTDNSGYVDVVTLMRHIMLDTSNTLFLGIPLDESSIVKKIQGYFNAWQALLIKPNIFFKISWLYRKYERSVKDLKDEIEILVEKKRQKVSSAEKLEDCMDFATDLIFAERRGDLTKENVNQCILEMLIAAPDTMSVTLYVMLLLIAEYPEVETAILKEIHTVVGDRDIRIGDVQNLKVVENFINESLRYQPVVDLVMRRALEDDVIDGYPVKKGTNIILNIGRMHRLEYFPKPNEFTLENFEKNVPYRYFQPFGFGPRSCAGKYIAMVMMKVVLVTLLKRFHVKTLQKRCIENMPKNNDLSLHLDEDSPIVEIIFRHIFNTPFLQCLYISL
# [3] = test system: serum testosterone and estradiol; experiment: 12 week open label dose-finding study (Part 1) in obese hypogonadotropic hypogonadal men; assay type: in vivo, human
# Source text: The study is designed as a 2-part study, with Part 1 being open-label to best determine the appropriate dose levels to use in Part 2, which has a randomized, double-blind, placebo controlled design.
# As set out above, this is a two-part study in obese, hypogonadotropic hypogonadal (OHH) men, wherein Part 1 is a single group, open label, non-randomized study establishing appropriate dosing. After all subjects have successfully completed 4 weeks of treatment, they continue for up to a total of 12 weeks of treatment. Then Part 2 follows as a parallel group, randomized, double-blind, placebo-controlled design, for 12 weeks of treatment, with an interim analysis after 4 weeks of treatment. Both Parts of the study have up to a 28 day screening period, a single baseline day, a 12 week treatment period (11 weekly doses), followed by a 3 month follow-up period.
# Thus, for Part 1 of the study, it was decided to start with 0.01 mg as the loading dose, assess the testosterone response at 5 or 6 days after a single dose, and adjust the next weekly dose up or down based on the acute testosterone response. The weekly maintenance dose is not expected to exceed 0.5 mg. For at least the first 4 weeks of treatment, subject's sex steroid levels are measured prior to their subsequent dosing. The subsequent dose is the adjusted based on the prior response.
# If free testosterone is above normal, the Week 2 dose will be 1/10 (0.001 mg) of the loading dose. If free testosterone is below normal, the Week 2 dose will be ½ of the loading dose (0.005 mg). Subsequent weekly doses are adjusted on a ½ log order to achieve normalization of free testosterone levels.
# Assessments and evaluations: The following assessments will be performed during the study: • 1. Background, demographic and administrative assessments • Inclusion/exclusion criteria; Relevant medical history/Current medical conditions • Demography • Physical examination, including digital prostate examination • International Prostate Symptom Score (IPSS) • Hepatitis screen, HIV screen • Alcohol test, Drug screen • Prolactin, ferritin and thyroid stimulating hormone (TSH) • Drug administration: each time study drug is administered • Study Completion information • Comments • 2. Safety and tolerability assessments • Vital signs and body measurements • Body height (BMI will be calculated) • Body weight* • Body temperature • Blood pressure, pulse rate • ECG evaluations • Hematology; Blood chemistry; Urinalysis • Prostate specific antigen (PSA) • Adverse events: from time of first administration of study drug until Study Completion. Adverse events occurring before starting study treatment but after signing the informed consent form are recorded on the Medical History/Current Medical Conditions Case Report Form. • Serious adverse events: from time of consent until 30 days after Study Completion • Concomitant medications/Significant non-drug therapies: Refer to entry criteria and Concomitant medication for details of recording requirements for allowed and restricted medications during the study. • 3. Pharmacokinetic (PK) blood assessments: PK samples will be collected on multiple occasions during the treatment phase of the study. PK assessments will also be collected every 6 weeks during the safety follow-up period. […]
# [4] = weekly oral doses 0.003 mg to 5 mg
smiles,measurement,setting,value
"N#Cc1ccc(C(F)(c2ccc(C#N)cc2)n2cncn2)cc1 [CGP47645, 4,4′-[fluoro-(1-H-1,2,4-triazol-1-yl)methylene]bisbenzonitrile]",Tmax,"[1]; both sexes, dog, plasma, oral, dogs, post dose",1 to 24 h
same,difference in exposure (AUC and Cmax) between male and female dogs,[1]; dogs,no consistent difference
same,drug accumulation,"[1]; dogs, weekly oral dosing for 4 or 22 weeks versus single dose",no drug accumulation
same,increase in exposure (AUC and Cmax) versus dose,"[1]; male and female dogs, single and multiple doses",generally proportional to the dose increase
same,serum testosterone levels,"[1]; male dogs after 1, 4 and 12 weeks of dosing",dramatically elevated testosterone levels at all dose levels
same,mode of aromatase inhibition,[2],competitive inhibitor
same,effective dose achieving medical castration,aromatase,3 mg/kg
same,tolerability,"[3]; 14 obese hypogonadal men, weekly oral doses 0.003 mg to 5 mg, 12 weeks",tolerated CGP47645 well
same,testosterone normalization (RIA),"[3]; 14 obese hypogonadal men, weekly oral doses 0.003 mg to 5 mg, during treatment",rose in all men individually into the normal range
same,average serum estradiol at week 12,"[3]; baseline 24±4.9 pg/mL, LC-MS",18 ± 9.4 pg/mL
same,average testosterone at week 12,"[3]; baseline 250±22.3 ng/dL, RIA",550 ± 191.8 ng/dL
same,average change of testosterone from baseline to week 12,[3]; [4],approximately 2 fold
same,reduction of serum estradiol (LC-MS),[3]; [4],30-50%
